{"source": "patent US6881426B2", "about": "“Echinacea angustifolia extracts” (priority 2002, dated 2005)", "origin": "cited, not measured here", "tested_on": "hyaluronidase", "data": [{"substance": "echinacoside", "values": [{"measurement": "hyaluronidase inhibition", "value": "inhibition"}]}]}
